How the values were obtained:
[1] = Cytotoxicity against human SF295 cells assessed as cell growth at 10^-8 M after 48 hrs by SRB assay; format: functional; conditions: SF-295, 48 h, read-out: Activity
[2] = Cytotoxicity against human SNB19 cells assessed as cell growth at 10^-4 M after 48 hrs by SRB assay; format: functional; conditions: SNB-19, 48 h, read-out: Activity
[3] = tested on: NCI-H460; experiment: Cytotoxicity against human NCI-H460 cells assessed as cell growth at 10^-8 M after 48 hrs by SRB assay; format: functional; conditions: NCI-H460, 48 h, read-out: Activity
[4] = Cytotoxicity against human Caki1 cells assessed as cell growth at 10^-5 M after 48 hrs by SRB assay; format: functional; conditions: CAKI-1, 48 h, read-out: Activity
[5] = Cytotoxicity against human PC3 cells assessed as cell growth at 10^-6 M after 48 hrs by SRB assay; format: functional; conditions: PC-3, 48 h, read-out: Activity
[6] = Cytotoxicity against human UACC257 cells assessed as cell growth at 10^-7 M after 48 hrs by SRB assay; format: functional; conditions: UACC-257, 48 h, read-out: Activity
[7] = Cytotoxicity against human HCC2998 cells assessed as cell growth at 10^-4 M after 48 hrs by SRB assay; format: functional; conditions: HCC 2998, 48 h, read-out: Activity
[8] = tested on: NCI-H522; experiment: Cytotoxicity against human NCI-H522 cells assessed as cell growth at 10^-5 M after 48 hrs by SRB assay; format: functional; conditions: NCI-H522, 48 h, read-out: Activity
[9] = tested on: A549; experiment: Cytotoxicity against human A549 cells assessed as cell growth at 10^-4 M after 48 hrs by SRB assay; format: functional; conditions: A549, 48 h, read-out: Activity
[10] = Cytotoxicity against human OVCAR5 cells assessed as cell growth at 10^-8 M after 48 hrs by SRB assay; format: functional; conditions: OVCAR-5, 48 h, read-out: Activity
[11] = Cytotoxicity against human SKOV3 cells assessed as cell growth at 10^-4 M after 48 hrs by SRB assay; format: functional; conditions: SK-OV-3, 48 h, read-out: Activity
[12] = Cytotoxicity against human OVCAR4 cells assessed as cell growth at 10^-5 M after 48 hrs by SRB assay; format: functional; conditions: OVCAR-4, 48 h, read-out: Activity
[13] = Cytotoxicity against human UACC62 cells assessed as cell growth at 10^-6 M after 48 hrs by SRB assay; format: functional; conditions: UACC-62, 48 h, read-out: Activity
[14] = tested on: HT-29; experiment: Cytotoxicity against human HT-29 cells assessed as cell growth at 10^-8 M after 48 hrs by SRB assay; format: functional; conditions: HT-29, 48 h, read-out: Activity
[15] = Cytotoxicity against human DU145 cells assessed as cell growth at 10^-5 M after 48 hrs by SRB assay; format: functional; conditions: DU-145, 48 h, read-out: Activity
[16] = tested on: A498; experiment: Cytotoxicity against human A498 cells assessed as cell growth at 10^-7 M after 48 hrs by SRB assay; format: functional; conditions: A498, 48 h, read-out: Activity
[17] = Cytotoxicity against human HCT116 cells assessed as cell growth at 10^-4 M after 48 hrs by SRB assay; format: functional; conditions: HCT-116, 48 h, read-out: Activity
[18] = tested on: T47D; experiment: Cytotoxicity against human T47D cells assessed as cell growth at 10^-6 M after 48 hrs by SRB assay; format: functional; conditions: read-out: Activity
[19] = Cytotoxicity against human MOLT4 cells assessed as cell growth at 10^-7 M after 48 hrs by SRB assay; format: functional; conditions: MOLT-4, 48 h, read-out: Activity
[20] = tested on: K562; experiment: Cytotoxicity against human K562 cells assessed as cell growth at 50 nM after 48 hrs by SRB assay; format: functional; conditions: K562, 48 h, read-out: Activity
[21] = Cytotoxicity against human OVCAR8 cells assessed as cell growth at 5 nM after 48 hrs by SRB assay; format: functional; conditions: OVCAR-8, 48 h, read-out: Activity
[22] = Cytotoxicity against human OVCAR3 cells assessed as cell growth at 5 uM after 48 hrs by SRB assay; format: functional; conditions: OVCAR-3, 48 h, read-out: Activity
[23] = Cytotoxicity against human PC3 cells assessed as cell growth at 0.5 uM after 48 hrs by SRB assay; format: functional; conditions: PC-3, 48 h, read-out: Activity
[24] = tested on: NCI-H226; experiment: Cytotoxicity against human NCI-H226 cells assessed as cell growth at 5 uM after 48 hrs by SRB assay; format: functional; conditions: NCI-H226, 48 h, read-out: Activity
[25] = Cytotoxicity against human HOP62 cells assessed as cell growth at 50 nM after 48 hrs by SRB assay; format: functional; conditions: HOP-62, 48 h, read-out: Activity
[26] = Cytotoxicity against human HCT15 cells assessed as cell growth at 50 nM after 48 hrs by SRB assay; format: functional; conditions: HCT-15, 48 h, read-out: Activity
[27] = Cytotoxicity against human MOLT4 cells assessed as cell growth at 5 nM after 48 hrs by SRB assay; format: functional; conditions: MOLT-4, 48 h, read-out: Activity
[28] = tested on: MCF7; experiment: Cytotoxicity against human MCF7 cells assessed as cell growth at 50 nM after 48 hrs by SRB assay; format: functional; conditions: MCF7, 48 h, read-out: Activity
[29] = tested on: SK-MEL-2; experiment: Cytotoxicity against human SK-MEL-2 cells assessed as cell growth at 0.5 uM after 48 hrs by SRB assay; format: functional; conditions: SK-MEL-2, 48 h, read-out: Activity
[30] = Cytotoxicity against human OVCAR5 cells assessed as cell growth at 50 uM after 48 hrs by SRB assay; format: functional; conditions: OVCAR-5, 48 h, read-out: Activity
[31] = Metabolic stability in human liver microsomes assessed as remaining parent compound level at 10 uM measured immediately after compound addition in absence of NAPDH by LC/MS analysis; format: ADME; conditions: read-out: Drug metabolism
[32] = Cytotoxicity against human COLO205 cells assessed as cell growth at 50 uM after 48 hrs by SRB assay; format: functional; conditions: COLO 205, 48 h, read-out: Activity
[33] = Cytotoxicity against human SF539 cells assessed as cell growth at 50 nM after 48 hrs by SRB assay; format: functional; conditions: SF-539, 48 h, read-out: Activity
[34] = Cytotoxicity against human HL-60(TB) cells assessed as cell growth at 5 uM after 48 hrs by SRB assay; format: functional; conditions: HL-60, 48 h, read-out: Activity
[35] = Cytotoxicity against human HCT15 cells assessed as cell growth at 0.5 uM after 48 hrs by SRB assay; format: functional; conditions: HCT-15, 48 h, read-out: Activity
[36] = tested on: ACHN; experiment: Cytotoxicity against human ACHN cells assessed as cell growth at 5 nM after 48 hrs by SRB assay; format: functional; conditions: read-out: Activity
[37] = Cytotoxicity against human HOP92 cells assessed as cell growth at 5 nM after 48 hrs by SRB assay; format: functional; conditions: HOP-92, 48 h, read-out: Activity
[38] = tested on: M14; experiment: Cytotoxicity against human M14 cells assessed as cell growth at 50 uM after 48 hrs by SRB assay; format: functional; conditions: M14, 48 h, read-out: Activity
[39] = Cytotoxicity against human SKOV3 cells assessed as cell growth at 50 uM after 48 hrs by SRB assay; format: functional; conditions: SK-OV-3, 48 h, read-out: Activity
[40] = Cytotoxicity against human SF268 cells assessed as cell growth at 5 nM after 48 hrs by SRB assay; format: functional; conditions: SF-268, 48 h, read-out: Activity

Which results are given for C/C(=C(/c1ccc(O)cc1)c1ccc(OCCN2CCCC2)cc1)c1ccccc1?
growth at 0.01 µM [1]: 87%; growth at 100 µM [2]: -74%; growth at 0.01 µM [3]: 106%; growth at 10 µM [4]: 17%; growth at 1 µM [5]: 103%; growth at 0.1 µM [6]: 102%; growth at 100 µM [7]: -80%; growth at 10 µM [8]: -38%; growth at 100 µM [9]: -96%; growth at 0.01 µM [10]: 88%; growth at 100 µM [11]: -98%; growth at 10 µM [12]: 31%; growth at 1 µM [13]: 106%; growth at 0.01 µM [14]: 101%; growth at 10 µM [15]: 49%; growth at 0.1 µM [16]: 60%; growth at 100 µM [17]: -98%; growth at 1 µM [18]: 48%; growth at 0.1 µM [19]: 101%

Which growth at 0.05 µM [20] does the source give for CCCCCCCCCC(=O)Oc1ccc(/C(=C(/C)c2ccccc2)c2ccc(OCCN3CCCC3)cc2)cc1 here?
The growth at 0.05 µM was 95%.

And the growth at 0.005 µM [21]?
The growth at 0.005 µM was 102%.

And the growth at 5 µM [22]?
Its growth at 5 µM is 86%.

What about the growth at 0.5 µM [23] of the same compound?
Its growth at 0.5 µM is 86%.

And the growth at 5 µM [24]?
Its growth at 5 µM is 97%.

What about the growth at 0.05 µM [25] of the same compound?
Its growth at 0.05 µM is 95%.

What about the growth at 0.05 µM [26] of the same compound?
Its growth at 0.05 µM is 90%.

And the growth at 0.005 µM [27]?
Its growth at 0.005 µM is 97%.

What about the growth at 0.05 µM [28] of the same compound?
The growth at 0.05 µM was 41%.

What about the growth at 0.5 µM [29] of the same compound?
The growth at 0.5 µM was 99%.

And the growth at 50 µM [30]?
The growth at 50 µM was -84%.

What about the remaining at 0 h, 10 µM [31] of the same compound?
The remaining at 0 h, 10 µM was 82%.

What about the growth at 50 µM [32] of the same compound?
The growth at 50 µM was -89%.

What about the growth at 0.05 µM [33] of the same compound?
Its growth at 0.05 µM is 98%.

What about the growth at 5 µM [34] of the same compound?
Its growth at 5 µM is 94%.

What about the growth at 0.5 µM [35] of the same compound?
The growth at 0.5 µM was 58%.

And the growth at 0.005 µM [36]?
The growth at 0.005 µM was 101%.

What about the growth at 0.005 µM [37] of the same compound?
Its growth at 0.005 µM is 86%.

What about the growth at 50 µM [38] of the same compound?
The growth at 50 µM was -81%.

And the growth at 50 µM [39]?
The growth at 50 µM was -88%.

What about the growth at 0.005 µM [40] of the same compound?
The growth at 0.005 µM was 100%.
